Paper PMC8882856, “The affinity and selectivity of α‐adrenoceptor antagonists, antidepressants and antipsychotics for the human α2A, α2B, and α2C‐adrenoceptors and comparison with human α1 and β‐adrenoceptors” (Pharmacology Research & Perspectives, 2022)
Like-named read-outs stand apart in the source and are kept apart here.

Key:
[1] = target: human β2‐adrenoceptor (Homo sapiens, UniProt P07550); format: binding; conditions: for Log KD β2 / Kd: mean ± s.e.mean; for IC50 (log) β2, IC50>top concentration used / IC50: ^3H‐CGP12177, log value; for Kd: read-out: Log KD β2 (converted); for IC50: read-out: IC50 (log) β2, IC50>top concentration used (converted)
[2] = target: T1, human α2A‐adrenoceptor (Homo sapiens, UniProt P08913)
T1 sequence (P08913 1-465): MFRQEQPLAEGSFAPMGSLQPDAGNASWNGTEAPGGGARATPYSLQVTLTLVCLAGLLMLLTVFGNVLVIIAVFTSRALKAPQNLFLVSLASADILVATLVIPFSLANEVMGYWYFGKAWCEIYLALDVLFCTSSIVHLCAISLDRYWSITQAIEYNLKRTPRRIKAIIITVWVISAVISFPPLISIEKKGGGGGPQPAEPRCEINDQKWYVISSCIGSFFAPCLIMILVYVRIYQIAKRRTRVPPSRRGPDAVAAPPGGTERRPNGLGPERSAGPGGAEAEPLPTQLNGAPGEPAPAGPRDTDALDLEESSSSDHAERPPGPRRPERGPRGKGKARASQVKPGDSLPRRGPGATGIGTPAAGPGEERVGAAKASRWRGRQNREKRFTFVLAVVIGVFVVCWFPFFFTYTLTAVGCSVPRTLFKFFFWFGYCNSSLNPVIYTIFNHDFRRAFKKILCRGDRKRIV

[3] = target: T2, human α2C‐adrenoceptor (Homo sapiens, UniProt P18825)
T2 sequence (P18825 1-462): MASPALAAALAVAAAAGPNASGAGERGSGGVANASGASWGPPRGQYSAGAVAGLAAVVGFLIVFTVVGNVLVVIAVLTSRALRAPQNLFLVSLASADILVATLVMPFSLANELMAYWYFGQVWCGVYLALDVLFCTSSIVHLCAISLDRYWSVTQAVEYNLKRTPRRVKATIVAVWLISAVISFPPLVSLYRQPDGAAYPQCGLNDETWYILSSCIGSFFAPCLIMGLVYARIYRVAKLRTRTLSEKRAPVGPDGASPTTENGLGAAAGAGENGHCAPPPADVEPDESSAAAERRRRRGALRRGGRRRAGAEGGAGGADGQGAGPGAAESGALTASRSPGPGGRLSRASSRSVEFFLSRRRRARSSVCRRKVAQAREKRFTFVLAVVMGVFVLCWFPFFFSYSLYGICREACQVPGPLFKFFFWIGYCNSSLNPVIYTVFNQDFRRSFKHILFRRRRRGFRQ

[4] = target: T3, human β1‐adrenoceptor (Homo sapiens, UniProt P08588); conditions: for Log KD β1: mean ± s.e.mean
[5] = target: T1, human α2A‐adrenoceptor; test: ^3H‐rauwolscine whole cell competition binding, CHO‐α2A cells
[6] = target: T4, human α2B‐adrenoceptor (Homo sapiens, UniProt P18089); test: ^3H‐rauwolscine whole cell competition binding, CHO‐α2B cells; conditions: for IC50 (log) α2B, IC50>top concentration used: ^3H‐rauwolscine, top concentration inhibited 50% or less of specific binding, log value
T4 sequence (P18089 1-450): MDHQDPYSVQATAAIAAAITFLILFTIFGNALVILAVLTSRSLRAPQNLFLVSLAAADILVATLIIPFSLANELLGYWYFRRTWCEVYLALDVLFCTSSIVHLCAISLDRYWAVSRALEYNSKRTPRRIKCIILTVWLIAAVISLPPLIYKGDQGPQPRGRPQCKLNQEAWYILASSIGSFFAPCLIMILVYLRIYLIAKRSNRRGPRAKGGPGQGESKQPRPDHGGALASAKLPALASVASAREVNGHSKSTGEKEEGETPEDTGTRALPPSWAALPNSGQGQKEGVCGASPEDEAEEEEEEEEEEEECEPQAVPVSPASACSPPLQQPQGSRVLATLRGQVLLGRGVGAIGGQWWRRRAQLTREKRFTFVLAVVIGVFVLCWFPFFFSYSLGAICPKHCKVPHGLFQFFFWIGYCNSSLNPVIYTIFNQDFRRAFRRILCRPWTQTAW

[7] = target: T1, human α2A‐adrenoceptor; test: cell-based
[8] = target: T2, human α2C‐adrenoceptor; test: cell-based
[9] = target: T2, human α2C‐adrenoceptor; test: ^3H‐rauwolscine whole cell competition binding, CHO‐α2C cells
[10] = target: T3, human β1‐adrenoceptor; test: cell-based
[11] = target: T4, human α2B‐adrenoceptor; test: cell-based
[12] = ^3H‐CGP12177 whole cell binding, log values, ^app = apparent KD, 'no binding to' = log top concentration
[13] = given as log KD (negative values), 3H-CGP12177 whole cell binding, CHO cells

T3 sequence (P08588 whole entry): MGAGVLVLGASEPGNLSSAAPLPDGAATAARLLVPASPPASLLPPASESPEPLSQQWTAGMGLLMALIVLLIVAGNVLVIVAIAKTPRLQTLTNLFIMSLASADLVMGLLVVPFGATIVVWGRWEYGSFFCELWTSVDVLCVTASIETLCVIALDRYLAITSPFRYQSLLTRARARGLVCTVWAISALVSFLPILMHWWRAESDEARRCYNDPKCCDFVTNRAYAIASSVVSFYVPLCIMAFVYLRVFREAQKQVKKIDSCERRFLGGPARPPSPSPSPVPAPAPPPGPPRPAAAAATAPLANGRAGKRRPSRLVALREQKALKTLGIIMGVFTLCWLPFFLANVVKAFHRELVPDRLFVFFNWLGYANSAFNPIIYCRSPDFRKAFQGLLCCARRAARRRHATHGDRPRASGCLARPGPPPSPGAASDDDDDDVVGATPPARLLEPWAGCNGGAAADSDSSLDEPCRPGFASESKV
Sequence of human β2‐adrenoceptor (P07550 whole entry): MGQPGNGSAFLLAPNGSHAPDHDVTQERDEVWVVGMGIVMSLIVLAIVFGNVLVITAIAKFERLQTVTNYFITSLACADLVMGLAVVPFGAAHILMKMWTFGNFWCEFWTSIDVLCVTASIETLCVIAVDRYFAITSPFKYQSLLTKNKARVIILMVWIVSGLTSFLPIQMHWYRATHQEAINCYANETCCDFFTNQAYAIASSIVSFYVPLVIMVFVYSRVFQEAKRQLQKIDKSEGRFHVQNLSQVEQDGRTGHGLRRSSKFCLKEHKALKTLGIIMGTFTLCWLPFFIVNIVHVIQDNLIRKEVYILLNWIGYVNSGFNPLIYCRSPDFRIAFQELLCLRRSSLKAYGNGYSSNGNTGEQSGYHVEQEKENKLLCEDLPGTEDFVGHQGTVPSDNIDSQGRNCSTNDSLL

COCc1c(Cl)ccc2c1CC[C@H]2c1ncc[nH]1 [PF3774076]
Log KD β2 [1, 12]: No binding to −4
Log KD β2 [1, 13]: No binding to -4
Kd [2]: 2.57 µM
Kd [3]: 5.13 µM
Log KD β1 [4, 12]: No binding to −4
Log KD β1 [4, 13]: No binding to -4
Selectivity ratio α2A vs α2C (higher affinity for α2A) ([5]; ratio of KD values): 2.0
IC50 (log) α2B, IC50>top concentration used [6]: IC50>−4

CC(C)NCC(O)COc1cccc2[nH]c3ccccc3c12 (stereo not shown) [carazolol]
Kd [7]: 21.9 µM
Kd [8]: 21.9 µM
IC50 [6]: > 100 µM

COc1ccccc1N1CCN(CCn2c(=O)[nH]c3c([nH]c4ccccc43)c2=O)CC1 [3‐MPPI]
IC50 (log) β2, IC50>top concentration used [1]: IC50>−4
Kd [2]: 0.214 µM
Kd [3]: 0.0977 µM
Log KD β1 [4, 12]: No binding to −4
Log KD β1 [4, 13]: No binding to -4
IC50 (log) α2B, IC50>top concentration used [6]: IC50>−4
Selectivity ratio α2A vs α2C (higher affinity for α2C) ([9]; ratio of KD values): 2.2

COc1ccc(C(CN(C)C)C2(O)CCCCC2)cc1 (stereo not shown) [venlafaxime]
Log KD β2 [1, 12]: −4.13 ± 0.13^app
Kd [2]: 346.7 ± 3.01 µM
Kd [3]: 182 µM
Log KD β1 [4, 12]: −3.80 ± 0.11^app

COc1ccccc1N1CCN(CCCNc2cc(=O)n(C)c(=O)n2C)CC1 [urapidil]
Kd [1, 12]: 10 µM
Kd [7]: 3.24 µM

Cc1ccc(OCC(O)C(C)NC(C)C)c2c1CCC2 (stereo not shown) [ICI118551]
Kd [7]: 9.33 µM
Kd [8]: 8.91 µM
IC50 [6]: > 100 µM

Cn1cc(C(F)(F)F)nc1-c1ccc(OCC(O)CNCCOc2ccc(O)c(C(N)=O)c2)cc1 (stereo not shown) [CGP20712A]
Kd [8]: 6.76 µM
IC50 [5]: > 100 µM
IC50 [6]: > 100 µM

ClCCN(Cc1ccccc1)Cc1ccccc1 [dibenamine]
Log KD β2 [1, 12]: −4.94 ± 0.10^app
Kd [2]: 1.58 µM
Kd [3]: 0.661 µM
Log KD β1 [4, 12]: −4.60 ± 0.06^app
% site 1, α2B ([6]; proportion of site 1 in two-site fit): 60.9 ± 3.4%
Selectivity ratio α2A vs α2B (higher affinity for α2B) ([6]; ratio of KD values): 4.3
Selectivity ratio α2B vs α2C (higher affinity for α2B) ([6]; ratio of KD values): 1.8
% site 1, α2B ([6]; two-component inhibition, proportion of higher affinity site): 60.9 ± 3.4%
% site 1 α2B (percentage through first component) ([6]; two‐component inhibition of ^3H‐rauwolscine binding): 60.9 ± 3.4%
Selectivity ratio α2A vs α2C (higher affinity for α2C) ([9]; ratio of KD values): 2.4

c1ccc2c(c1)OCC(C1=NCCN1)O2 (stereo not shown) [idazoxan]
IC50 [1]: > 1000 µM
IC50 [10]: > 1000 µM

COc1ccccc1N1CCN(CCN2C(=O)CC3(CCCC3)CC2=O)CC1 [BMY7378]
IC50 [1]: > 100 µM
Kd [7]: 5.01 µM
Kd [11]: 10.5 µM
Kd [8]: 0.55 µM

CC(CN(C)C)CN1c2ccccc2CCc2ccccc21 (stereo not shown) [trimipramine]
Kd [7]: 2.14 µM
Kd [11]: 0.603 µM
Kd [8]: 0.427 µM

CCOc1ccccc1OCCN[C@H](C)Cc1ccc(OC)c(S(N)(=O)=O)c1 [tamsulosin]
Kd [1, 12]: 0.832 µM
Kd [7]: 0.468 µM
Kd [10]: 0.55 µM
Selectivity ratio α2A vs α2B (higher affinity for α2A) ([5]; ratio of KD values): 10.5
Kd [6]: 4.9 µM
Kd [9]: 0.389 µM
Selectivity ratio α2A vs α2C (higher affinity for α2C) ([9]; ratio of KD values): 1.2
Selectivity ratio α2B vs α2C (higher affinity for α2C) ([9]; ratio of KD values): 12.6

O=C1NCN(c2ccccc2)C12CCN(CC1COc3ccccc3O1)CC2 (stereo not shown) [spiroxatrine]
IC50 [1]: > 31.6 µM
Kd [7]: 0.107 µM
Kd [8]: 0.00182 µM
IC50 [10]: > 31.6 µM

COc1cc2nc(N3CCN(C(=O)COc4c(OC)cccc4C(C)C)CC3)nc(N)c2cc1OC [Rec15‐2615]
IC50 (log) β2, IC50>top concentration used [1]: IC50>−4
Kd [2]: 2.95 µM
Kd [3]: 0.275 µM
IC50 (log) β1, IC50>top concentration used ([4]; ^3H‐CGP12177, log value): IC50>−4
IC50 (log) α2B, IC50>top concentration used [6]: IC50>−4.5
Selectivity ratio α2A vs α2C (higher affinity for α2C) ([9]; ratio of KD values): 10.7
